# Results reported in patent US7498349B2, “Biaryl compounds having anti-infective activity” (Genesoft Pharmaceuticals, Inc., priority 2002, dated 2009).
# Experiments:
# [1] = tested on: B. cereus ATCC 11778; assay: MIC, NCCLS broth microdilution assay; format: cell-based, Bacillus cereus; conditions: B. cereus ATCC 11778
# [2] = tested on: C. albicans ATCC 38247; assay: MIC, antifungal assay; format: cell-based, Candida albicans; conditions: C. albicans ATCC 38247
# [3] = tested on: E. faecalis ATCC 29212; assay: MIC, NCCLS broth microdilution assay; format: cell-based, Enterococcus faecalis; conditions: E. faecalis ATCC 29212
# [4] = tested on: S. aureus ATCC 13709; assay: MIC, NCCLS broth microdilution assay; format: cell-based, Staphylococcus aureus; conditions: S. aureus ATCC 13709, methicillin sensitive strain (MSSA)
# [5] = tested on: S. aureus ATCC 27660; assay: MIC, NCCLS broth microdilution assay; format: cell-based, Staphylococcus aureus; conditions: S. aureus ATCC 27660, methicillin resistant strain (MRSA)
# [6] = tested on: S. aureus ATCC 33591; assay: MIC, NCCLS broth microdilution assay; format: cell-based, Staphylococcus aureus; conditions: S. aureus ATCC 33591
# [7] = tested on: S. epidermidis ATCC 12228; assay: MIC, NCCLS broth microdilution assay; format: cell-based, Staphylococcus epidermidis
# [8] = tested on: S. pneumoniae ATCC 49619; assay: MIC, NCCLS broth microdilution assay; format: cell-based, Streptococcus pneumoniae; conditions: S. pneumoniae ATCC 49619
# [9] = tested on: E. coli ATCC 25922; assay: MIC, NCCLS broth microdilution assay; format: cell-based, Escherichia coli; conditions: E. coli ATCC 25922
# [10] = tested on: E. faecium (ATCC 51559, VRE); conditions: E. faecium ATCC 51559, vancomycin resistant strain (VRE)
# From the text: (§1) In vitro biological activity data were collected for a variety of microorganisms, including Bacillus cereus (ATCC 11778), Staphylococcus aureus (ATCC 33591; ATCC 27660, a methicillin resistant strain (MRSA); ATCC 13709, a methicillin sensitive strain (MSSA)), Escherichia coli (ATCC 25922), Enterococcus faecalis (ATCC 29212), Streptococcus pneumoniae (ATCC 49619; ATCC 51422, a penicillin resistant strain (PRSP)), Enterococcus faecium (ATCC 51559, a vancomycin resistant strain (VRE)), and Staphylococcus epidermidis (ATCC 12228). Additionally, antifungal activity data were collected for Candida albicans (ATCC 38247).
# (§2) Compounds according to this invention were screened for their in vitro activities against selected species of bacteria and fungi. The minimal inhibition concentration (MIC) of these compounds was determined using the National Committee for Clinical Laboratory Standards (NCCLS) broth microdilution assay in microtiter plates, as set forth in: (1) the guidelines of the National Committee for Clinical Laboratory Standards (NCCLS) Document M7-A4 (NCCLS, 1997); (2) the guidelines of the National Committee for Clinical Laboratory Standards (NCCLS) Document M11-A4 (NCCLS, 1997); and (3) the guidelines and reference method of the National Committee for Clinical Laboratory Standards (NCCLS) Document M27 -T (NCCLS, 1995). For antifungal assays, the method recommended in Murray, PR., 1995 Manual of Clinical Microbiology (ASM Press, Washington, D.C.), was employed.
# (§3) (MIC values are keyed in the same manner as Table B.)
# [11] = tested on: S. pneumoniae (ATCC 51422, PRSP); conditions: S. pneumoniae ATCC 51422, penicillin resistant strain (PRSP)
# From the text: as §1, §2, §3
Structure (SMILES),Minimum Inhibitory Concentration (MIC) [1],Minimum Inhibitory Concentration (MIC) [2],Minimum Inhibitory Concentration (MIC) [3],Minimum Inhibitory Concentration (MIC) [4],Minimum Inhibitory Concentration (MIC) [5],Minimum Inhibitory Concentration (MIC) [6],Minimum Inhibitory Concentration (MIC) [7],Minimum Inhibitory Concentration (MIC) [8] [µg/mL],Minimum Inhibitory Concentration (MIC) [9] [µg/mL],Minimum Inhibitory Concentration (MIC) [10],Minimum Inhibitory Concentration (MIC) [11]
Cc1ccc2nc(-c3ccc(NC(=O)c4nsc(NCCCN)c4Cl)cc3)sc2c1 [Compound A-53],+++ (MIC ≦ 4),>32 µg/mL,+++ (MIC ≦ 4),+++ (MIC ≦ 4),+++ (MIC ≦ 4),+++ (MIC ≦ 4),+++ (MIC ≦ 4),>32,>32,+++ (MIC ≦ 4),+ (12 ≦ MIC ≦ 32)
NCCCCNc1snc(C(=O)Nc2ccc(-c3cc4ccccc4s3)nc2)c1Cl [Compound A-68],+++ (MIC ≦ 4),+++ (MIC ≦ 4),+++ (MIC ≦ 4),+++ (MIC ≦ 4),+++ (MIC ≦ 4),+++ (MIC ≦ 4),+++ (MIC ≦ 4),>32,>32,+++ (MIC ≦ 4),>32 µg/mL
